Data published in patent US20220408724A1, “METHOD FOR CONTROLLING METABOLISM OF BRANCHED FATTY ACID” (KAO CORPORATION, priority 2019, published 2022).

How the values were obtained:
Assay type in all cases: cell-based
Rhodotorula mucilaginosa [1] = test: Suppression of metabolite 4-methylhexanoic acid from 14-methylhexadecanoic acid; details: agent 250 μg/fabric g
Experimental: The extraction liquid was mixed with (a 1000 ppm methanol solution of) an ADAM reagent of Funakoshi Co., Ltd. at 1:1 (volume ratio) and left overnight under room temperature and dark place conditions. […] The quantification conditions are as follows. […] The higher a numerical value thereof is, the more the metabolism is suppressed. Note that the metabolite suppression rate was determined by the following formula: […] In this example, Rhodotorula mucilaginosa (strain isolated from clothing) was used as a microorganism. Further, in this example, the bacteria were precultured under conditions of a PDA agar medium (Difco), 30° C.; and 48 hours. Further, in this example, a bacterial suspension of 10^7 (CFU/ml) prepared by using a PDB liquid medium (Difco) diluted to 1/10 with ion exchange water was used as a bacterial suspension.

Rhodotorula mucilaginosa [2] = test: Suppression of metabolism of 14-methylhexadecanoic acid on cotton fabric; details: agent 250 μg/fabric g
Experimental: (§1) A methanol solution in which 14-methylhexadecanoic acid (SIGMA-ALDRICH) was dissolved was added dropwise to 3 cm×3 cm pieces of sterilized plain-weave cotton fabric to make it adhered to the fabric. The adhesion amount of 14-methylhexadecanoic acid was set to 10 μg per piece of the plain-weave cotton fabric (100 μg/fabric g).
(§2) Further, a methanol solution in which each metabolism controlling agent was dissolved was prepared and added dropwise to the fabric to which 14-methylhexadecanoic acid adhered, and it was thereafter dried for an hour. This fabric was placed in a sterilized screw tube bottle No. 3 (Maruemu Corporation) and 100 μl of the bacterial suspension was inoculated thereto, and culture was carried out under 37° C.; conditions for 21 hours.
(§3) 3 ml of methanol was added to the screw tube bottle after culture, and extraction was carried out under ultrasonic irradiation for 30 minutes (20° C.). The extraction liquid was mixed with a (trimethylsilyl)diazomethane hexane solution (FUJIFILM Wako Pure Chemical Corporation) at 9:1 (volume ratio) and left overnight under room temperature and dark place conditions. After that, 14-methylhexadecanoic acid remaining on the fabric was quantified by GC. The quantification conditions for GC are as follows. • GC: Agilent 7890A • GC column: Agilent DB-1 30 m×250 μm×0.25 μm • Temperature rise condition: 50° C. (held for 3 minutes)-(10° C./min)-300° C. (held for 5 minutes) • Sample injection volume: 1 μl • Split ratio: 1:12 • Detector: FID
(§4) The residual amount of 14-methylhexadecanoic acid after culture on the fabric to which the metabolism controlling agent was added was quantified, and the ratio of the residual amount to that of 14-methylhexadecanoic acid in the case of adding no metabolism controlling agent (control) was calculated as a metabolism suppression rate (%). The higher a numerical value thereof is, the more the metabolism is suppressed. Note that the metabolism suppression rate was determined by the following formula:
(§5) Metabolism suppression rate(%)=[1−(100−A)/(100−B)]×100 • A: residual amount of 14-methylhexadecanoic acid of example or comparative example (μg/fabric g) • B: residual amount of 14-methylhexadecanoic acid of control (μg/fabric g)
The metabolism of 14-methylhexadecanoic acid by yeast of the genus Rhodotorula was tested in the same manner as in example 1.
In this example, Rhodotorula mucilaginosa (strain isolated from clothing) was used as a microorganism.
Further, in this example, the bacteria were precultured under conditions of a PDA agar medium (Difco), 30° C.; and 48 hours.
Further, in this example, a bacterial suspension of 10^7 (CFU/ml) prepared by using a PDB liquid medium (Difco) diluted to 1/10 with ion exchange water was used as a bacterial suspension.

Staphylococcus aureus [3] = test: Measurement of viable bacterial count on fabric; details: agent 250 μg/fabric g
Experimental: (§6) After culture on fabric prepared in the same manner as in the above (1), 9 mL of an LP diluent (manufactured by NIHON PHARMACEUTICAL CO., LTD.) was added, and the extraction of the bacteria was carried out under ultrasound for 10 minutes. The extraction liquid was poured and mixed to an SCD-LP agar medium (NIHON PHARMACEUTICAL CO., LTD.), and culture was thereafter carried out at 37° C.; for a day. The number of colonies obtained on each piece of the fabric was counted, and a common logarithm value thereof was measured as the viable bacterial count. […] In addition, the […], the more the viable bacterial count of the microorganism is maintained.
(§7) The metabolism of 14-methylhexadecanoic acid by bacteria of the genus Staphylococcus (Staphylococcus aureus) was tested in the same manner as in example 1.
(§8) In this example, Staphylococcus aureus (strain isolated from clothing) was used as a microorganism.
(§9) Further, in this example, a bacterial suspension of 10^7 (CFU/ml) prepared by using an NB liquid medium diluted to 1/10 with ion exchange water was used as a bacterial suspension.
(§10) Note that, in this example, C12OH (1-dodecanol) was used as the metabolism controlling agent.

[4] = tested on: Escherichia coli (NBRC3972); test: Suppression of metabolite 4-methylhexanoic acid from 14-methylhexadecanoic acid
Experimental: (§11) After culture on fabric prepared in the same manner as in the above (1), 3 ml of methanol was added, and extraction was carried out under ultrasonic irradiation for 30 minutes (20° C.). The extraction liquid was mixed with (a 1000 ppm methanol solution of) an ADAM reagent of Funakoshi Co., Ltd. at 1:1 (volume ratio) and left overnight under room temperature and dark place conditions. After that, 4-methyl-3-hexenoic acid as a metabolite from 14-methylhexadecanoic acid was quantified by HPLC. The quantification conditions are as follows.
(§12) The production amount of 4-methyl-3-hexenoic acid after culture on the fabric to which each metabolism controlling agent was added was quantified, and the ratio of the production amount to that of 4-methyl-3-hexenoic acid in the case of adding no metabolism controlling agent (control) was calculated as a metabolite suppression rate (%). The higher a numerical value thereof is, the more the metabolism is suppressed. Note that the metabolite suppression rate was determined by the following formula:
(§13) Metabolite suppression rate(%)=100×[(D−C)/D] • C: production amount of metabolite of example or comparative example (μg/fabric g) • D: production amount of metabolite of control (μg/fabric g)
(§14) The metabolism of 14-methylhexadecanoic acid by bacteria of the genus Escherichia (Escherichia coli) was tested in the same manner as in example 1.
(§15) In this example, Escherichia coli (NBRC3972) was used as a microorganism.
(§16) Further, in this example, a bacterial suspension of 10^6 (CFU/ml) prepared by using an NB liquid medium diluted to 1/10 with ion exchange water was used as a bacterial suspension.
(§17) Further, in this example, 4-methylhexanoic acid was quantified as a metabolite from 14-methylhexadecanoic acid, and the metabolite suppression rate was determined in the same manner as in example 1.
as §10

Staphylococcus aureus [5] = test: Suppression of metabolism of 14-methylhexadecanoic acid on cotton fabric; details: agent 250 μg/fabric g
Experimental: as §1, §2, §3, §4, §5, §7, §8, §9

Micrococcus aloeverae [6] = test: Suppression of metabolite 2-methylbutanoic acid from 14-methylhexadecanoic acid; details: agent 250 μg/fabric g
Experimental: as §11, §12, §13
(§18) The metabolism of 14-methylhexadecanoic acid by bacteria of the genus Micrococcus was tested in the same manner as in example 1.
(§19) In this example, Micrococcus aloeverae (strain isolated from clothing) was used as a microorganism.
(§20) Further, in this example, a bacterial suspension of 10^7 (CFU/ml) prepared by using an SCD liquid medium (NIHON PHARMACEUTICAL CO., LTD.) diluted to 1/10 with ion exchange water was used as a bacterial suspension.
Further, in this example, 2-methylbutanoic acid was quantified as a metabolite from 14-methylhexadecanoic acid, and the metabolite suppression rate was determined in the same manner as in example 1.
as §10

[7] = tested on: Escherichia coli (NBRC3972); test: Suppression of metabolism of 14-methylhexadecanoic acid on cotton fabric
Experimental: as §1, §2, §3, §4, §5, §14, §15, §16, §10

Micrococcus aloeverae [8] = test: Measurement of viable bacterial count on fabric; details: agent 250 μg/fabric g
Experimental: as §6, §18, §19, §20, §10

[9] = tested on: Escherichia coli (NBRC3972); test: Measurement of viable bacterial count on fabric
Experimental: as §6, §14, §15, §16, §10

Micrococcus aloeverae [10] = test: Suppression of metabolism of 14-methylhexadecanoic acid on cotton fabric; details: agent 250 μg/fabric g
Experimental: as §1, §2, §3, §4, §5, §18, §19, §20, §10

Staphylococcus aureus [11] = test: Suppression of metabolite 4-methylhexanoic acid from 14-methylhexadecanoic acid; details: agent 250 μg/fabric g
Experimental: as §11, §12, §13, §7, §8, §9, §17, §10

Row | SMILES | Metabolite suppression rate (%) (Rhodotorula mucilaginosa [1]) | Metabolism suppression rate (%) (Rhodotorula mucilaginosa [2]) | Bacterial count (Log (cfu/fabric cm^2)) (Staphylococcus aureus [3]) | Metabolite suppression rate (%) ([4]; agent 1000 μg/fabric g) | Metabolism suppression rate (%) (Staphylococcus aureus [5]) | Metabolite suppression rate (%) (Micrococcus aloeverae [6]) | Metabolism suppression rate (%) ([7]; agent 500 μg/fabric g) | Metabolism suppression rate (%) ([7]; agent 1000 μg/fabric g) | Bacterial count (Log (cfu/fabric cm^2)) (Micrococcus aloeverae [8]) | Bacterial count (Log (cfu/fabric cm^2)) ([9]; agent 500 μg/fabric g) | Bacterial count (Log (cfu/fabric cm^2)) ([9]; agent 1000 μg/fabric g) | Metabolism suppression rate (%) (Micrococcus aloeverae [10]) | Metabolite suppression rate (%) ([4]; agent 500 μg/fabric g) | Metabolite suppression rate (%) (Staphylococcus aureus [11])
1 | CCCCCCCCCCCCOCCO [Example C12E1, ethylene glycol mono-1-dodecyl ether] | 41 | 24 |  |  |  |  |  |  |  |  |  |  |  | 
2 | CCCCCCCCCCCCCCCCCCO [Example C18OH, 1-octadecanol, reference compound] |  | 2 | 5.6 Log (cfu/fabric cm^2) | 0 | −1 | 1 | −15 | 3 | 6.8 Log (cfu/fabric cm^2) | 6.2 Log (cfu/fabric cm^2) | 5.9 Log (cfu/fabric cm^2) | −7 |  | 
3 | CCCCCCCCCO [Example C9OH, 1-nonyl alcohol] | 21 | 14 |  | 33 |  |  | 13 | 25 |  | 6.5 Log (cfu/fabric cm^2) | 6.3 Log (cfu/fabric cm^2) |  | 31 | 
4 | CCCCCCCCCCO [Example C10OH, 1-decanol] | 46 | 51 | 5.5 Log (cfu/fabric cm^2) | 75 | 16 | 51 | 16 | 38 | 7.0 Log (cfu/fabric cm^2) | 6.5 Log (cfu/fabric cm^2) | 6.4 Log (cfu/fabric cm^2) | 33 | 42 | 35
5 | CCCCCCCCCCCCCO [Example C13OH, 1-tridecanol] |  |  |  |  |  | 59 |  |  | 6.7 Log (cfu/fabric cm^2) |  |  | 41 |  | 
6 | CCCCCCCCCCCCOCCOCCO [Example C12E2, diethylene glycol mono-1-dodecyl ether, reference compound] |  |  |  |  | 7 | 8 | −2 |  | 6.8 Log (cfu/fabric cm^2) | 6.5 Log (cfu/fabric cm^2) |  | −11 | −2 | 
7 | CCCCCCCCCCCCCCO [Example C14OH, 1-tetradecanol] | 45 | 14 | 5.6 Log (cfu/fabric cm^2) | 77 | 42 |  | 27 | 67 |  | 6.7 Log (cfu/fabric cm^2) | 6.5 Log (cfu/fabric cm^2) |  | 47 | 53
8 | CCCCCCCCCCCCCCCCO [Example C16OH, 1-hexadecanol] | 38 | 24 | 6.1 Log (cfu/fabric cm^2) | 27 | 16 |  |  | 18 |  |  | 6.6 Log (cfu/fabric cm^2) |  |  | 20
